Source: ChEMBL document CHEMBL1125738, “A ring-enlarged oxetanocin A analogue as an inhibitor of HIV infectivity” (1991)

System: Human immunodeficiency virus 1
Experiment: Cytopathogenic effect was evaluated against Human immunovirus-1 (HIV-1).
Format: functional

Structure (SMILES)	Protective dose
Nc1ncnc2c1ncn2[C@@H]1O[C@H](CO)[C@H]1CO	100 µM
Nc1ncnc2c1ncn2[C@H]1C[C@H](CO)[C@@H](CO)O1	10 µM
